Results published in ChEMBL document CHEMBL1212716, “Impact of linker strain and flexibility in the design of a fragment-based inhibitor” (Nat Chem Biol, 2009).

Legend:
Uracil-DNA glycosylase [1] = target: T1, Uracil-DNA glycosylase (Homo sapiens, UniProt P13051); assay: Inhibition of human uracil DNA glycosylase using fluorescent DNA substrate
Uracil-DNA glycosylase [2] = target: T1, Uracil-DNA glycosylase; assay: Inhibition of human uracil DNA glycosylase at […] using fluorescent DNA substrate

T1 sequence (P13051 whole entry): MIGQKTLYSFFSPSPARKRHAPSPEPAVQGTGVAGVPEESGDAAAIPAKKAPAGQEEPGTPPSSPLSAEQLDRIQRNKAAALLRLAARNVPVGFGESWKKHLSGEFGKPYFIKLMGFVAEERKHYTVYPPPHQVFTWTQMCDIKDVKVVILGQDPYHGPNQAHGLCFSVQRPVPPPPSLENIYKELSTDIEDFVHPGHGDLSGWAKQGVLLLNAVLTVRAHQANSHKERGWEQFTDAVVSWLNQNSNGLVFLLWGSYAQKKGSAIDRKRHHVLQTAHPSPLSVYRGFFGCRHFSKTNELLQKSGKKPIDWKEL

Row | SMILES | Ki (Uracil-DNA glycosylase [1]) | inhibition (Uracil-DNA glycosylase [2])
1 | NOCCCNCc1cccc(C(=O)O)c1 | 16 mM | 18%
2 | NCCCO/N=C/c1cc(=O)[nH]c(=O)[nH]1 | 0.75 mM | –
3 | NOCCCNCc1cc(=O)[nH]c(=O)[nH]1 | 0.7 mM | –

Continued, values first:

Row | Ki (Uracil-DNA glycosylase [1]) | inhibition (Uracil-DNA glycosylase [2]) | SMILES
4 | 10 mM | 25% | NCCCO/N=C/c1cccc(C(=O)O)c1
5 | 10 mM | – | O=Cc1cccc(C(=O)O)c1 [3-FORMYLBENZOIC ACID]
